According to patent US20130203718A1 (priority 2010, published 2013):

Columns and labels:
hMR = molecular target: T1, hMR (Homo sapiens, UniProt P08235); test: APRn selectivity: transactivation in HEK293T cells transiently expressing hMR; format: cell-based; conditions: mean±SEM; for MR Antagonist efficacy (%): aldosterone 10^−9 M
T1 construct: expressed in transfected cells; host or cells: HEK 293T
T1 sequence (P08235 1-984): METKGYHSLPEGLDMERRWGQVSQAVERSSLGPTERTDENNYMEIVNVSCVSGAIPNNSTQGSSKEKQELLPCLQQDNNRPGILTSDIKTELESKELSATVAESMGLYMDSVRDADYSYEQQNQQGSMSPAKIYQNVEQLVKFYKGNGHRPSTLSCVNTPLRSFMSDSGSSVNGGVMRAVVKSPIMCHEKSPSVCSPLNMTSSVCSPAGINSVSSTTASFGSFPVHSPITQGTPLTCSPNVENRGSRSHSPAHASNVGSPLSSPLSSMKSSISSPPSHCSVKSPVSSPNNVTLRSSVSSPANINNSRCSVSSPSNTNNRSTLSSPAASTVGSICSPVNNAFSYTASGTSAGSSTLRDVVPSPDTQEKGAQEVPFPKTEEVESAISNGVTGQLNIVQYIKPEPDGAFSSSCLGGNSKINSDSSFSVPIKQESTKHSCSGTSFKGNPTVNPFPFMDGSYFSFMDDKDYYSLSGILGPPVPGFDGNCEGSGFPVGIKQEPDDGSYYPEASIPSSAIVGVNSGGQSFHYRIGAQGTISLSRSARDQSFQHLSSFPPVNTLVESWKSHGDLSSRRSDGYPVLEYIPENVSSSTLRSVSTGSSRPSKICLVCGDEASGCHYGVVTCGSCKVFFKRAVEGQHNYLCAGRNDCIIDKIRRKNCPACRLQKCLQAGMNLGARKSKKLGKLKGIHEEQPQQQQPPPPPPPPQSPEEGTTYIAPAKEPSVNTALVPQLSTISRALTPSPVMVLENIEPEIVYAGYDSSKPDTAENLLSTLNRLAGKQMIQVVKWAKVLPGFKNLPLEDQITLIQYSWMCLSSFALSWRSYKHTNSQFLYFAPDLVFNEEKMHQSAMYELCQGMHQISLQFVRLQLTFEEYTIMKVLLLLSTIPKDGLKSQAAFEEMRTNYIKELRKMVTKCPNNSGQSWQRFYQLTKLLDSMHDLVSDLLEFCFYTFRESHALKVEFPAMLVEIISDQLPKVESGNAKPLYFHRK
Experimental: Measurement of the APRn Selectivity in HEK 293T.
The HEK-293T cells were cultured and transfected according to the method described above for the PR transactivation assays. The expression vectors pcDNA-hAR, kindly provided by G. A. Coetzee, pchGR (Hellal-Levy, C et al. FEBS Lett 1999, 464, 9), and pchMR (Fagart, J. et al. EMBO J. 1998, 17, 3317) were used for studying the ability of APRn to activate or inactivate the AR, GR and MR, respectively. For each transfection assays, 2 μg of the expression vector was used together with 7 μg of the GRE2-Luc reporter vector. Dihydrotestosterone (DHT), dexamethasone (Dex) and Aldosterone (Aldo) were selected as AR, GR and MR ligands, respectively. They were used at the concentration of 10^−9 M. The APRn agonist and antagonist efficacy for AR, GR and MR were measured as described above for PR. The results are the mean±SEM of three independent experiments.
Transfection assays were performed in HEK 293T cells by using expression vectors for the hAR, hGR and hMR and the GRE2-Luc reporter used for the PR transactivation assays.

CC(=O)[C@H]1CC[C@H]2[C@@H]3CC=C4C[C@@H](F)CC[C@]4(C)[C@H]3CC[C@]12C [APR-16, 3β-Fluoropregn-5-en-20-one]
MR Antagonist efficacy (%) (hMR): −2.7 ± 3.3% | MR Agonist efficacy (%) (hMR): 0.53 ± 0.05% | melting point: 166 to 167 °C

CC#C[C@]1(O)CCC2C3CC[C@H]4CCCC[C@]4(C)C3CC[C@@]21C (stereo partly drawn) [APR-42, 17α-(1-Propynyl)-5α-androstan-17β-ol]
MR Antagonist efficacy (%) (hMR): 0.4 ± 2.6% | MR Agonist efficacy (%) (hMR): 0.57 ± 0.05% | melting point: 150 to 151 °C

C[C@]12CCC3C(CC=C4C[C@@H](F)CC[C@@H]43)C1CCC2=O (stereo partly drawn) [APR-47, 3β-Fluoro-19-nor-androst-5-en-17-one]
MR Antagonist efficacy (%) (hMR): 2.2 ± 2.1% | MR Agonist efficacy (%) (hMR): 0.50 ± 0.14% | melting point: 102 to 103 °C

CC#C[C@]1(O)CCC2C3CC=C4C[C@@H](F)CC[C@@H]4C3CC[C@@]21C (stereo partly drawn) [APR-51, 3β-Fluoro-17α-(1-propynyl)-19-nor-androst-5-en-17β-ol]
melting point: 72 to 73 °C

CC#C[C@]1(O)CCC2C3CC[C@H]4C[C@@H](F)CC[C@]4(C)C3CC[C@@]21C (stereo partly drawn) [APR-43, 3β-Fluoro-17α-(1-propynyl)-5α-androstan-17β-ol]
melting point: 139 to 140 °C

C[C@@H]1CCC2C3CC=C4C[C@@H](F)CC[C@]4(C)C3CC[C@]2(C)[C@H]1F (stereo partly drawn) [APR-19, 3β,17α-Difluoro-17α-methyl-D-Homo-pregn-5-ene]
MR Antagonist efficacy (%) (hMR): −1.0 ± 3.5% | MR Agonist efficacy (%) (hMR): 0.57 ± 0.07%

CC#C[C@]1(O)CCC2C3CC[C@H]4CCCC[C@@H]4C3CC[C@@]21C (stereo partly drawn) [APR-54, 17α-(1-Propynyl)-19-nor-5-androstan-17β-ol]
MR Antagonist efficacy (%) (hMR): 3.4 ± 6.2% | MR Agonist efficacy (%) (hMR): 0.53 ± 0.11%
